Test results: US5246935A, “Piperazinyl derivatives and methods of treating central nervous system ailments relating to the 5-HT2 receptor system” (Novo Nordisk A/S, priority 1990, dated 1993)
Where a name gives a salt, the structure may show the parent alone.

How the values were obtained:
5HT2 receptor = target: T1, 5HT2 receptor (Rattus norvegicus, UniProt P14842); test: In Vitro Inhibition of 5HT2-Receptor Binding (3H-Ketanserine); set-up: species or system rat (male Wistar); settings: 3H-Ketanserine 0.4 nM, rat frontal cortex, 37° C., 15 min
T1 construct: incubated with isolated cell-membrane fragments; from tissue; host or cells: frontal cortex of male Wistar rats (membranes)
Experimental: In Vitro Inhibition of 5HT2 -Receptor Binding
Radioactive-labelled ligand ^3 H-Ketanserine is incubated with isolated cell-membrane fragments at 37° C. for a given period of time. Following completed incubation, the incubate is filtered through GF/B filters which are rinsed after filtration to remove unspecifically adhered radioactivity. As opposed to low-molecular compounds, membrane fragments are not rinsed through the filters, the radioactivity bound to the filters indicates the amount of ligand bound specifically as well as non-specifically to the membranes.
The preparation is made in ice bath. Polytron kinematica is rinsed with milli-Q-H2 O before and after use. Male Wistar rats, 150-200 g are decapitated. Frontal cortex is removed quickly and weighed (approx. 200 mg). Frontal cortex is added to centrifuging vial containing 10 ml ice-cold D2 buffer. Homogenization applying polytron kinematica (homogenizer) setting 6 for 20 sec. The homogenizer is rinsed with 10 ml D2 buffer in another centrifuging vial. The 10 ml rinsing buffer is added to the tissue vial. Centrifuged at 18,000 rpm for 10 min. at 4° C. Final pellet is transferred to 125×vol. of same buffer. (Ex. 200 mg in 25 ml D2 buffer). Can be stored for approx. 30 min. at 0° C.
25 μl ^3 H-Ketanserine (0.4 nM)
25 μl test substance/H2 O/blind cyproheptadine (2 μM)
Incubation for 15 min. at 37° C.
10 ml ice-cold 0.9% NaCl is added to the tubes. Filtration is performed through GF/B filters (use gloves). This procedure is repeated. Filters are placed in counting vials, and 4 ml opti- flour is added (prepare in fume cupboard, use gloves). Counting at window 0-19 of the beta-counter (Pachard). Note that receptor box and lid are rinsed thoroughly in H2 O after use to avoid contamination. Further the analytical site is cleaned carefully every day.
Dissolved in H2 O, EtOH, MeOH or DMSO and further diluted in H2 O. The 5HT2 binding will stand concentrations of up to approx. 5% of these solvents without affecting the binding. Most stock solutions are stable at 4° C. Attention should, however, be paid to any precipitation, change in colour etc. Test-substance dilutions are always made fresh every day. When weighing out test substance, it is attempted to weigh out approx. 1 mg of substance. Less than 0.8 mg must never be weighed out and only infrequently more than 2 mg (for economy reasons) dependent, however, on conc./assay.

Alpha1 receptor = test: In-Vitro Inhibition of Alpha1-Receptor Binding (3H-Prazosin); set-up: species or system rat (male Wistar); settings: 3H-Prazosin 0.5 nM, rat cortex, 25° C., 30 min; read-out: Receptor binding IC50 α1
Experimental: In-Vitro Inhibition of Alpha1 -Receptor Binding, Radioactive-labelled ligand ^3 H-Prazosin is incubated with isolated cell-membrane fragments at 25° C. for a given period of time. Following completed incubation, the incubate is filtered through GF/B filters, which are rinsed following filtration to remove unspecifically adhered radioactivity. As opposed to low- molecular compounds, membrane fragments are not rinsed through the filters, the radioactivity bound to the filters indicates the amount of ligand bound specifically as well as nonspecifically to the membranes. The procedure is performed in ice bath. Polytron kinematica is rinsed with milli-Q-H2 O before and after use. Male Wistar rats, 150-200 g are decapitated, cortex is removed quickly and weighed (approx. 500 mg). Cortex is transferred to a centrifuging vial containing 10 ml ice-cold D2 buffer. Homogenization applying polytron kinematica (homogenizer) setting 6 for 20 sec. The homogenizer is rinsed with 10 ml D2 buffer in another centrifuging vial. The 10 ml rinsing buffer is added to the tissue vial. Centrifugation at 18,000 rpm for 12 min. at 4° C. This is repeated once. Final pellet is added to 400×vol. of same buffer. (Ex. 500 mg cortex in 200 ml D2 buffer). Can be stored for 30 min. at 0° C. 2,000 μl tissue 25 μl ^3 H-Prazosin (0.5 nM) 25 μl test substance/H2 O/blind Phentolamine (10 μM) Incubation for 30 min. at 25° C. 10 ml of ice-cold 0.9% NaCl is added to the tubes and filtered through GF/B filters (use gloves). This procedure is repeated. Filters are placed in counting vials and 4 ml opti-flour is added (perform in fume cupboard, use gloves). Counting is performed at window 0-19 of the betacounter (Pachard). […] Further, the analytical site is cleaned carefully every day after use. Dissolved in H2 O, EtOH, MeOH or DMSO and further diluted in H2 O. […] Most stock solutions are stable at 4° C. Attention should, however, be paid to any precipitation, change in colour etc. Test-substance dilutions are always prepared fresh every day. When weighing out test substances, it is attempted to weigh out approx. 1 mg of substance. Less than 0.8 mg must never be weighed out and only infrequently more than 2 mg (for economy reasons) dependent, however, on conc./ass.

T1 sequence (P14842 whole entry, the tested form may be a part): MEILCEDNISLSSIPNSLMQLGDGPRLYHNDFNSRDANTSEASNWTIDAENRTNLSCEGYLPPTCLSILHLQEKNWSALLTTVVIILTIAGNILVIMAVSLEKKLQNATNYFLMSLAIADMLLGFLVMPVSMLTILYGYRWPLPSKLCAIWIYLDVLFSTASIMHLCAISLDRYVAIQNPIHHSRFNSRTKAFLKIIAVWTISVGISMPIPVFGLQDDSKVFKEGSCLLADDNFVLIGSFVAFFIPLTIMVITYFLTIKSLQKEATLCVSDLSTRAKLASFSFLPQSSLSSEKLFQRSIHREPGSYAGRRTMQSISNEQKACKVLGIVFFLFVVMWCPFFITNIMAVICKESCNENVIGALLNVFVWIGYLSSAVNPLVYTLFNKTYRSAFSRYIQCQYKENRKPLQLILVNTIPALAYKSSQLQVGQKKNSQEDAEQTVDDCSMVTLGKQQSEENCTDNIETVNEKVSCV

Compound | IC50 (5HT2 receptor) | IC50 (Alpha1 receptor)
COc1ccc2cccc(N3CCN(CCCOC(=O)Nc4ccc5c(c4)OCO5)CC3)c2c1 [Example 34, 1-(7-Methoxy-1-naphthyl)-4-[3-(3,4-methylenedioxyphenylcarbamoyloxy)propyl]piperazine, HCl] | 13 nM | 144 nM
O=C(Nc1ccc2ncsc2c1)OCCCN1CCN(c2ccc(Cl)cc2)CC1 [Example 19, 4-(4-Chlorophenyl)-1-[3-(6-benzothiazolylcarbamoyloxy)propyl]piperazine, hydrochloride] | 22 nM | 122 nM
COc1cc(NC(=O)OCCCN2CCN(c3ccc(F)cc3)CC2)cc(OC)c1OC [Example 8, 4-(4-Fluorophenyl)-1-[3-(3,4,5-trimethoxyphenylcarbamoyloxy)propyl]piperazine, hydrochloride] | 10 nM | 61 nM
COc1cc(NC(=O)OCCCN2CCN(c3ccccc3Cl)CC2)cc(OC)c1OC.Cl [Example 3, 4-(2-Chlorophenyl)-1-[3-(3,4,5-trimethoxyphenylcarbamoyloxy)propyl]piperazine, hydrochloride] | 7.5 nM | 45 nM
